Reference: PubChem BioAssay AID2060903 (Molecular Pharmacology Branch, DTP, NCI, 2025)

Tested on: 377384-186-R-J1-PDC complex spheroid viability
Experiment: Anticancer human tumor 377384-186-R-J1-PDC patient-derived pancreatic carcinoma cell line growth inhibition [RAS]
Settings: for IC50: curve of first compound; for viability, T/C: stronger effect = lower value
Procedure, shortened: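 Tumour cells grown as complex spheroids with HUVEC endothelial cells and mesenchymal stem cells, treated with RAS pathway inhibitor combinations. Each agent spans half-log steps from near clinical Cmax, or 10 microM where Cmax is unknown.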
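Note: spheroids exposed to compounds for seven days before readout.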

CC(=O)OC12COC1CC(O)C1(C)C(=O)C(O)C3=C(C)C(OC(=O)C(O)C(NC(=O)OC(C)(C)C)c4ccccc4)CC(O)(C(OC(=O)c4ccccc4)C21)C3(C)C (centres undefined) + CCn1c(-c2cccnc2C(C)OC)c2c3cc(ccc31)N1CCOC(CC(NC(=O)C(C(C)C)N(C)C(=O)C3(F)CCN(C(=O)C#CC(C)(C)N(C)C)CC3)C(=O)N3CCCC(N3)C(=O)OCC(C)(C)C2)C1
IC50 (second compound 0.000949 µM): < 31.6 nM
IC50 (second compound 0.003 µM): < 31.6 nM
IC50 (second compound 0.00949 µM): < 31.6 nM
IC50 (second compound 0.03 µM): < 31.6 nM
IC50 (second compound 0.0949 µM): < 31.6 nM
IC50 (second compound 0.3 µM): < 31.6 nM
viability, T/C (second compound 0.000949 µM, first compound 0.0316 µM): 10.2%
viability, T/C (second compound 0.000949 µM, first compound 0.1 µM): 10.2%
viability, T/C (second compound 0.000949 µM, first compound 0.316 µM): 11%
viability, T/C (second compound 0.000949 µM, first compound 1 µM): 14.1%
viability, T/C (second compound 0.000949 µM, first compound 3.16 µM): 14.5%
viability, T/C (second compound 0.000949 µM, first compound 10 µM): 15.6%
viability, T/C (second compound 0.003 µM, first compound 0.0316 µM): 11.1%
viability, T/C (second compound 0.003 µM, first compound 0.1 µM): 15.1%
viability, T/C (second compound 0.003 µM, first compound 0.316 µM): 11%
viability, T/C (second compound 0.003 µM, first compound 1 µM): 12.9%
viability, T/C (second compound 0.003 µM, first compound 3.16 µM): 14.7%
viability, T/C (second compound 0.003 µM, first compound 10 µM): 15.9%
viability, T/C (second compound 0.00949 µM, first compound 0.0316 µM): 10.5%
viability, T/C (second compound 0.00949 µM, first compound 0.1 µM): 11.6%
viability, T/C (second compound 0.00949 µM, first compound 0.316 µM): 12.5%
viability, T/C (second compound 0.00949 µM, first compound 1 µM): 12%
viability, T/C (second compound 0.00949 µM, first compound 3.16 µM): 13.7%
viability, T/C (second compound 0.00949 µM, first compound 10 µM): 14.4%
viability, T/C (second compound 0.03 µM, first compound 0.0316 µM): 9.38%
viability, T/C (second compound 0.03 µM, first compound 0.1 µM): 11.6%
viability, T/C (second compound 0.03 µM, first compound 0.316 µM): 12.8%
viability, T/C (second compound 0.03 µM, first compound 1 µM): 12.5%
viability, T/C (second compound 0.03 µM, first compound 3.16 µM): 13.4%
viability, T/C (second compound 0.03 µM, first compound 10 µM): 15.4%
viability, T/C (second compound 0.0949 µM, first compound 0.0316 µM): 9.14%
viability, T/C (second compound 0.0949 µM, first compound 0.1 µM): 10.3%
viability, T/C (second compound 0.0949 µM, first compound 0.316 µM): 12.3%
viability, T/C (second compound 0.0949 µM, first compound 1 µM): 12.8%
viability, T/C (second compound 0.0949 µM, first compound 3.16 µM): 13.1%
viability, T/C (second compound 0.0949 µM, first compound 10 µM): 12.8%
viability, T/C (second compound 0.3 µM, first compound 0.0316 µM): 6.36%
viability, T/C (second compound 0.3 µM, first compound 0.1 µM): 8.8%
viability, T/C (second compound 0.3 µM, first compound 0.316 µM): 9.95%
viability, T/C (second compound 0.3 µM, first compound 1 µM): 11.7%
viability, T/C (second compound 0.3 µM, first compound 3.16 µM): 12.3%
viability, T/C (second compound 0.3 µM, first compound 10 µM): 12%

CCN1CCN(Cc2ccc(Nc3ncc(F)c(-c4cc(F)c5nc(C)n(C(C)C)c5c4)n3)nc2)CC1 + C=CC(=O)N1CCN(c2nc(OCC3CCCN3C)nc3c(F)c(-c4nc(N)cc(C)c4C(F)(F)F)c(Cl)cc23)C(C)C1
IC50 (second compound 0.00316 µM): 210 nM
IC50 (second compound 0.01 µM): 181 nM
IC50 (second compound 0.0316 µM): 152 nM
IC50 (second compound 0.1 µM): 210 nM
IC50 (second compound 0.316 µM): 223 nM
IC50 (second compound 1 µM): 306 nM
viability, T/C (second compound 0.00316 µM, first compound 0.00316 µM): 87.5%
viability, T/C (second compound 0.00316 µM, first compound 0.01 µM): 77.2%
viability, T/C (second compound 0.00316 µM, first compound 0.0316 µM): 68.7%
viability, T/C (second compound 0.00316 µM, first compound 0.1 µM): 56.6%
viability, T/C (second compound 0.00316 µM, first compound 0.316 µM): 45.4%
viability, T/C (second compound 0.00316 µM, first compound 1 µM): 40.4%
viability, T/C (second compound 0.01 µM, first compound 0.00316 µM): 91.4%
viability, T/C (second compound 0.01 µM, first compound 0.01 µM): 79.8%
viability, T/C (second compound 0.01 µM, first compound 0.0316 µM): 73.3%
viability, T/C (second compound 0.01 µM, first compound 0.1 µM): 52.1%
viability, T/C (second compound 0.01 µM, first compound 0.316 µM): 46.8%
viability, T/C (second compound 0.01 µM, first compound 1 µM): 40.2%
viability, T/C (second compound 0.0316 µM, first compound 0.00316 µM): 89.4%
viability, T/C (second compound 0.0316 µM, first compound 0.01 µM): 81.8%
viability, T/C (second compound 0.0316 µM, first compound 0.0316 µM): 73.6%
viability, T/C (second compound 0.0316 µM, first compound 0.1 µM): 53.6%
viability, T/C (second compound 0.0316 µM, first compound 0.316 µM): 42.5%
viability, T/C (second compound 0.0316 µM, first compound 1 µM): 36.6%
viability, T/C (second compound 0.1 µM, first compound 0.00316 µM): 82.1%
viability, T/C (second compound 0.1 µM, first compound 0.01 µM): 78%
viability, T/C (second compound 0.1 µM, first compound 0.0316 µM): 70.7%
viability, T/C (second compound 0.1 µM, first compound 0.1 µM): 59%
viability, T/C (second compound 0.1 µM, first compound 0.316 µM): 44.6%
viability, T/C (second compound 0.1 µM, first compound 1 µM): 38.7%
viability, T/C (second compound 0.316 µM, first compound 0.00316 µM): 85.6%
viability, T/C (second compound 0.316 µM, first compound 0.01 µM): 79.2%
viability, T/C (second compound 0.316 µM, first compound 0.0316 µM): 77%
viability, T/C (second compound 0.316 µM, first compound 0.1 µM): 58.9%
viability, T/C (second compound 0.316 µM, first compound 0.316 µM): 46.3%
viability, T/C (second compound 0.316 µM, first compound 1 µM): 39.8%
viability, T/C (second compound 1 µM, first compound 0.00316 µM): 95.1%
viability, T/C (second compound 1 µM, first compound 0.01 µM): 75.4%
viability, T/C (second compound 1 µM, first compound 0.0316 µM): 73.6%
viability, T/C (second compound 1 µM, first compound 0.1 µM): 57.5%
viability, T/C (second compound 1 µM, first compound 0.316 µM): 46.1%
viability, T/C (second compound 1 µM, first compound 1 µM): 45.9%
